Measurements from PubChem BioAssay AID248 (DTP/NCI, 2004).
Values joined by “and” are separate entries in the source; they are usually repeats but may differ in a detail not shown here. Equal entries are not always repeated. Toxic doses and inconclusive results are not listed. Cut-off read from the data, not from the text of the source: active = T/C of 150% or more; inactive = T/C below 125%.

System: L1210 leukemia ip in BDF1 mice, survival T/C
Assay: NCI In Vivo Anticancer Drug Screen. Data for tumor model L1210 Leukemia (intraperitoneal) in B6D2F1 (BDF1) mice
Settings: endpoint: mean survival time, higher = longer survival
Method in brief: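 Transplantable tumor model; survival measured in treated vs vehicle control mice. Value = treated/control.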

[1] = dose: 100.0 mg/kg/injection, schedule: Q04DX003 (ip), vehicle: Klucel (hydroxypropylcellulose) (HPC)
[2] = dose: 200.0 mg/kg/injection, schedule: Q04DX003 (ip), vehicle: Klucel (hydroxypropylcellulose) (HPC)
[3] = dose: 400.0 mg/kg/injection, schedule: Q04DX003 (ip), vehicle: Klucel (hydroxypropylcellulose) (HPC)
[4] = dose: 100.0 mg/kg/injection, schedule: Q01DX009 (ip), vehicle: saline with Tween-80
[5] = dose: 100.0 mg/kg/injection, schedule: Q04DX003 (ip), vehicle: saline with Tween-80
[6] = dose: 200.0 mg/kg/injection, schedule: Q01DX009 (ip), vehicle: saline with Tween-80
[7] = dose: 200.0 mg/kg/injection, schedule: Q04DX003 (ip), vehicle: saline with Tween-80
[8] = dose: 400.0 mg/kg/injection, schedule: Q04DX003 (ip), vehicle: saline with Tween-80
[9] = dose: 100.0 mg/kg/injection, schedule: Q01DX009 (ip), vehicle: Klucel (hydroxypropylcellulose) (HPC)
[10] = dose: 200.0 mg/kg/injection, schedule: Q01DX009 (ip), vehicle: Klucel (hydroxypropylcellulose) (HPC)
[11] = dose: 400.0 mg/kg/injection, schedule: Q01DX009 (ip), vehicle: Klucel (hydroxypropylcellulose) (HPC)
[12] = dose: 100.0 mg/kg/injection, schedule: Q01DX001 (ip), vehicle: carboxymethylcellulose (CMC)
[13] = dose: 200.0 mg/kg/injection, schedule: Q01DX001 (ip), vehicle: carboxymethylcellulose (CMC)
[14] = dose: 400.0 mg/kg/injection, schedule: Q01DX001 (ip), vehicle: carboxymethylcellulose (CMC)

Measured: T/C

C1CN1P1(N2CC2)=NP(N2CC2)(N2CC2)=NP(N2CC2)(N2CC2)=NP(N2CC2)(N2CC2)=N1
inactive: dose: 4.4 mg/kg/injection, schedule: Q04DX003 (ip), vehicle: saline 114 % of control | dose: 6.6 mg/kg/injection, schedule: Q04DX003 (ip), vehicle: saline 116 % of control | dose: 10.0 mg/kg/injection, schedule: Q01DX001 (ip), vehicle: saline 118 % of control | dose: 10.0 mg/kg/injection, schedule: Q04DX003 (ip), vehicle: saline 119 % of control | dose: 20.0 mg/kg/injection, schedule: Q04DX003 (ip), vehicle: saline 117 % of control | dose: 40.0 mg/kg/injection, schedule: Q01DX001 (ip), vehicle: saline 124 % of control | dose: 40.0 mg/kg/injection, schedule: Q04DX003 (ip), vehicle: saline 109 % of control

COc1ccc(COC2C(CO)OC(n3cnc4c(N)ncnc43)C2O)cc1 (centres undefined)
inactive: dose: 100.0 mg/kg/injection, schedule: Q01DX005 (ip), vehicle: saline 97 % of control | dose: 200.0 mg/kg/injection, schedule: Q01DX005 (ip), vehicle: saline 100 % of control

Cc1c(C)c(C)c(CN/N=C/c2ccncc2)c(C)c1C
inactive: [1] 98 % of control | [2] 109 % of control | [3] 101 % of control

Clc1nc(N2CC2)nc(N2CC2)c1Br
inactive: dose: 0.2 mg/kg/injection, schedule: Q01DX Z (ip), vehicle: methylcellulose (MC) 88 % of control | dose: 0.5 mg/kg/injection, schedule: Q01DX Z (ip), vehicle: methylcellulose (MC) 104 % of control

O=S(=O)(Nc1ccccc1)c1ccccc1C#Cc1ccccc1
inactive: dose: 100.0 mg/kg/injection, schedule: Q01DX001 (ip), vehicle: steriod suspending solution 105 % of control | dose: 200.0 mg/kg/injection, schedule: Q01DX001 (ip), vehicle: steriod suspending solution 100 % of control | dose: 400.0 mg/kg/injection, schedule: Q01DX001 (ip), vehicle: steriod suspending solution 97 % of control

O=C1N=C(C(F)(F)F)N=C1c1[nH]c(C(F)(F)F)nc1O
inactive: [4] 95 % of control | [5] 104 % of control | [6] 98 % of control | [7] 100 % of control | dose: 400.0 mg/kg/injection, schedule: Q01DX009 (ip), vehicle: saline with Tween-80 102 % of control | [8] 105 % of control

CN(C)C1=C(N2CC2)C(=O)C(N(C)C)=C(N2CC2)C1=O
inactive: dose: 0.09 mg/kg/injection, schedule: Q01DX001 (ip), vehicle: saline 107 % of control | dose: 0.09 mg/kg/injection, schedule: Q01DX009 (ip), vehicle: saline 93 % of control and 116 % of control | dose: 0.09 mg/kg/injection, schedule: Q04DX003 (ip), vehicle: saline 94 % of control and 107 % of control | dose: 0.18 mg/kg/injection, schedule: Q01DX001 (ip), vehicle: saline 108 % of control | dose: 0.18 mg/kg/injection, schedule: Q01DX009 (ip), vehicle: saline 96 % of control and 108 % of control | dose: 0.37 mg/kg/injection, schedule: Q01DX001 (ip), vehicle: saline 97 % of control | dose: 0.37 mg/kg/injection, schedule: Q01DX009 (ip), vehicle: saline 114 % of control and 116 % of control | dose: 0.75 mg/kg/injection, schedule: Q01DX001 (ip), vehicle: saline 98 % of control | dose: 0.75 mg/kg/injection, schedule: Q01DX009 (ip), vehicle: saline 110 % of control | dose: 1.5 mg/kg/injection, schedule: Q01DX001 (ip), vehicle: saline 115 % of control | dose: 1.5 mg/kg/injection, schedule: Q01DX009 (ip), vehicle: saline 93 % of control

COC(=O)c1ccccc1NC(=O)NCCBr
inactive: [9] 95 % of control | [1] 103 % of control | [10] 93 % of control | [2] 97 % of control | [11] 93 % of control | [3] 110 % of control

O=C(Nc1cccc(C(F)(F)F)c1)N(Cc1ccccc1)Cc1ccccc1
inactive: dose: 100.0 mg/kg/injection, schedule: Q01DX009 (ip), vehicle: gum acacia 108 % of control | dose: 200.0 mg/kg/injection, schedule: Q01DX009 (ip), vehicle: gum acacia 106 % of control | dose: 400.0 mg/kg/injection, schedule: Q01DX009 (ip), vehicle: gum acacia 94 % of control

O=P(Cc1ccccc1)(Oc1ccccc1)Oc1ccccc1
inactive: [9] 91 % of control | [10] 94 % of control | [11] 91 % of control

CC1CP(=O)(Cc2ccccc2)C(c2ccccc2)=C1O (centres undefined)
inactive: [1] 90 % of control | [2] 93 % of control | [3] 96 % of control

O=C(Nc1cccc([N+](=O)[O-])c1)N1CCCC1
inactive: [12] 98 % of control | [13] 102 % of control | [14] 100 % of control

N/N=C(\c1ccccc1)c1ccccn1
inactive: dose: 55.0 mg/kg/injection, schedule: Q01DX Z (ip), vehicle: methylcellulose (MC) 103 % of control | dose: 83.0 mg/kg/injection, schedule: Q01DX Z (ip), vehicle: methylcellulose (MC) 97 % of control | dose: 125.0 mg/kg/injection, schedule: Q01DX Z (ip), vehicle: methylcellulose (MC) 90 % of control

CSc1cc2c(cc1NC(C)=O)Cc1ccccc1-2
inactive: [12] 93 % of control | [13] 95 % of control | [14] 95 % of control

O=C1C=C(c2ccccc2)C(c2ccccc2)C1=O (centres undefined)
inactive: dose: 50.0 mg/kg/injection, schedule: Q04DX002 (ip), vehicle: Klucel (hydroxypropylcellulose) (HPC) 106 % of control | dose: 100.0 mg/kg/injection, schedule: Q04DX002 (ip), vehicle: Klucel (hydroxypropylcellulose) (HPC) 98 % of control | dose: 200.0 mg/kg/injection, schedule: Q04DX002 (ip), vehicle: Klucel (hydroxypropylcellulose) (HPC) 95 % of control and 111 % of control | dose: 400.0 mg/kg/injection, schedule: Q04DX002 (ip), vehicle: Klucel (hydroxypropylcellulose) (HPC) 93 % of control

CCCCCCCCCCCCCCn1cnc2c(=S)nc[nH]c21
inactive: dose: 12.5 mg/kg/injection, schedule: Q01DX005 (ip), vehicle: other 101 % of control | dose: 25.0 mg/kg/injection, schedule: Q01DX005 (ip), vehicle: other 101 % of control | dose: 50.0 mg/kg/injection, schedule: Q01DX005 (ip), vehicle: other 96 % of control | dose: 100.0 mg/kg/injection, schedule: Q01DX005 (ip), vehicle: other 96 % of control | dose: 200.0 mg/kg/injection, schedule: Q01DX005 (ip), vehicle: other 95 % of control

CCOc1ncc([N+](=O)[O-])cc1[N+](=O)[O-]
inactive: [1] 88 % of control | [2] 92 % of control | [3] 90 % of control

Cc1ccc(N=C=Nc2ccc(C)cc2)cc1
inactive: dose: 25.0 mg/kg/injection, schedule: Q04DX003 (ip), vehicle: Klucel (hydroxypropylcellulose) (HPC) 105 % of control | dose: 50.0 mg/kg/injection, schedule: Q04DX003 (ip), vehicle: Klucel (hydroxypropylcellulose) (HPC) 97 % of control | [1] 90 % of control

COc1ccc(C(CC(=O)c2ccc3c(c2)OCO3)c2c(O)c3ccccc3oc2=O)cc1OC (centres undefined)
inactive: dose: 50.0 mg/kg/injection, schedule: Q01DX009 (ip), vehicle: saline with Tween-80 96 % of control | [4] 96 % of control | [5] 94 % of control | [6] 91 % of control | [7] 89 % of control | [8] 88 % of control
